Values quoted from earlier work as cited in patent publication US11406658B2, “Composition comprising glycyrrhizin and cosmetic and pharmaceutical uses thereof” (ATG 20 S.R.L., priority 2018, dated 2022).

Legend:
[1] = background art
[2] = oral administration; background art

Structure (SMILES) | solubility [1] | bioavailability [2]
CC1(C)[C@@H](O[C@H]2O[C@H](C(=O)O)[C@@H](O)[C@H](O)[C@H]2O[C@@H]2O[C@H](C(=O)O)[C@@H](O)[C@H](O)[C@H]2O)CC[C@]2(C)[C@H]3C(=O)C=C4[C@@H]5C[C@@](C)(C(=O)O)CC[C@]5(C)CC[C@@]4(C)[C@]3(C)CC[C@@H]12.N [(mono)ammonium salt, (mono) ammonium glycyrrhizate] | soluble in diluted acidic or basic solutions | –
CC1(C)[C@@H](O[C@H]2OC(C(=O)O)[C@@H](O)C(O)C2O[C@H]2OC(C(=O)O)[C@@H](O)C(O)C2O)CC[C@]2(C)[C@H]3C(=O)C=C4[C@@H]5C[C@@](C)(C(=O)O)CC[C@]5(C)CC[C@@]4(C)[C@]3(C)CC[C@@H]12 (stereo partly shown) [Glycyrrhizin] | not particularly water-soluble | extremely low
CC1(C)[C@@H](O[C@H]2OC(C(=O)[O-])[C@@H](O)C(O)C2O[C@H]2OC(C(=O)[O-])[C@@H](O)C(O)C2O)CC[C@]2(C)[C@H]3C(=O)C=C4[C@@H]5C[C@@](C)(C(=O)O)CC[C@]5(C)CC[C@@]4(C)[C@]3(C)CC[C@@H]12.[K+].[K+] (stereo partly shown) [potassium salt, dipotassium glycyrrhizate] | water-soluble | –
